Consider 3 molecules from patent US7659270B2, “Hepatitis C virus inhibitors” (Bristol-Myers Squibb Company, priority 2006, dated 2010).

The structures appear in SMILES notation.

This assay deals with HCV 1b-377-neo replicon cells. Briefly: HCV replicon assay (HCV 1b-377-neo replicon cells). The assay is classed as cell-based, Hepatitis C virus genotype 1b. To be noted: Hepatitis C virus, read-out: EC50 range against HCV 1b (Range). In outline:
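HCV genotype 1b (1b-377-neo) replicon cells, run as a validated replicon assay; parallel testing in replicon cells carrying the NS5A Y2065H resistance mutation.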
On the technique in general: Replicon systems follow genome replication, usually without infectious particles.

Usually EC50 stands for the midpoint of the concentration-response curve. `COC(=O)N[C@H](C(=O)N1CCC[C@H]1c1ncc(-c2cnc(-c3ccc(-c4[nH]c([C@@H]5CCCN5C(=O)[C@@H](NC(=O)OC)C(C)C)nc4C(F)(F)F)cc3)nc2)[nH]1)C(C)C` [Example J48, methyl ((1S)-1-(((2S)-2-(5-(2-(4-(2-((2S)-1-((2S)-2-((methoxy-carbonyl)amino)-3-methyl-butanoyl)-2-pyrrolidinyl)-4-(trifluoromethyl)-1H-imidazol-5-yl)phenyl)-5-pyrimidinyl)-1H-imidazol-2-yl)-1-pyrroli-dinyl)carbon-yl)-2-methylpro-pyl)carba-mate]: the EC50 is 0.01 to 0.999 nM.

As for `CN(C)[C@@H](C(=O)N1CCC[C@H]1c1ncc(-c2cnc(-c3cnc(-c4cnc([C@@H]5CCCN5C(=O)[C@@H](c5ccccc5)N(C)C)[nH]4)cn3)cn2)[nH]1)c1ccccc1` [Example 153c-5, (1R,1′R)-2,2′-(2,2′-bipyrazine-5,5′-diylbis(1H-imidazole-5,2-diyl (2S)-2,1-pyrrolidine-diyl))bis(N, N-dimeth-yl-2-oxo-1-phenyl-ethanamine)], the EC50 lay within 1 to 99 nM.

For the molecule `CN(C)[C@@H](C(=O)N1CCC[C@H]1c1ncc(-c2ccc(-c3cnc(-c4cnc([C@@H]5CCCN5C(=O)[C@@H](c5ccccc5)N(C)C)[nH]4)cn3)cc2)[nH]1)c1ccccc1` [Example 152j-7, (1R)-2-((2S)-2-(5-(5-(4-(2-((2S)-1-((2R)-2-(dimethylamino)-2-phenylacetyl)-2-pyrrolidinyl)-1H-imidazol-5-yl)phenyl)-2-pyrazinyl)-1H-imidazol-2-yl)-1-pyrrolidinyl)-N,N-dimethyl-2-oxo-1-phenylethanamine], the EC50 fell in the range of 1 to 99 nM.
